From patent US7880007B2, “Bicyclic substituted phenyl piperidine modulators of muscarinic receptors” (Vertex Pharmaceuticals Incorporated, priority 2004, dated 2011)

Legend:
Format in all cases: cell-based
M1 muscarinic receptor = target: T1, M1 muscarinic receptor (Homo sapiens, UniProt P11229); test: Functional mobilization of intracellular calcium (FLIPR), M1-CHO cells; details: for Emax: 100% efficacy = maximum response obtained with the Carbachol control; for M1 Activity: M1-CHO cells, calcium mobilization (FLIPR)
T1 construct: expressed in transfected cells; host or cells: CHO (M1-CHO)
T1 sequence (P11229 1-460): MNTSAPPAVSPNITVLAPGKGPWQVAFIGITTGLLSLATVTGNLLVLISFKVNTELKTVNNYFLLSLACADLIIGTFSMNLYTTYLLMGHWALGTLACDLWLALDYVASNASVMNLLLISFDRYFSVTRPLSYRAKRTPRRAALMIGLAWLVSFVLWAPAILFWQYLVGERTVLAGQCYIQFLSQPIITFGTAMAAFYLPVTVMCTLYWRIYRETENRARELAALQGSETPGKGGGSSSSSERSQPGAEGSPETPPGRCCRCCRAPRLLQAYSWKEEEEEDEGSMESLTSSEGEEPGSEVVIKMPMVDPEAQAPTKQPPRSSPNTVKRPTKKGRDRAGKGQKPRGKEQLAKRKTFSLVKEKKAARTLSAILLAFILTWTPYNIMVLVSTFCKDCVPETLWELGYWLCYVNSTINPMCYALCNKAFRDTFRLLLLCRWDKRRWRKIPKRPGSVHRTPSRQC
Summary of the method: (§1)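 CHO cells expressing human M1–M4 receptors loaded with Fluo-3 AM or Calcium 3 dye (1 mM probenecid, pH 7.4); 0.5% DMSO final. Agonist mode: compound added directly; antagonist mode: 15 min pre-incubation or co-application, then carbachol at EC80. Fluorescence read 60 s on FLIPR; efficacy relative to carbachol maximum.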

M3 muscarinic receptor = target: T2, M3 muscarinic receptor (Homo sapiens, UniProt P20309); test: Functional mobilization of intracellular calcium (FLIPR), M3-CHO cells; details: for Emax: 100% efficacy = maximum response obtained with the Carbachol control; for M3 Activity: M3-CHO cells, calcium mobilization (FLIPR)
T2 construct: expressed in transfected cells; host or cells: CHO (M3-CHO)
T2 sequence (P20309 whole entry): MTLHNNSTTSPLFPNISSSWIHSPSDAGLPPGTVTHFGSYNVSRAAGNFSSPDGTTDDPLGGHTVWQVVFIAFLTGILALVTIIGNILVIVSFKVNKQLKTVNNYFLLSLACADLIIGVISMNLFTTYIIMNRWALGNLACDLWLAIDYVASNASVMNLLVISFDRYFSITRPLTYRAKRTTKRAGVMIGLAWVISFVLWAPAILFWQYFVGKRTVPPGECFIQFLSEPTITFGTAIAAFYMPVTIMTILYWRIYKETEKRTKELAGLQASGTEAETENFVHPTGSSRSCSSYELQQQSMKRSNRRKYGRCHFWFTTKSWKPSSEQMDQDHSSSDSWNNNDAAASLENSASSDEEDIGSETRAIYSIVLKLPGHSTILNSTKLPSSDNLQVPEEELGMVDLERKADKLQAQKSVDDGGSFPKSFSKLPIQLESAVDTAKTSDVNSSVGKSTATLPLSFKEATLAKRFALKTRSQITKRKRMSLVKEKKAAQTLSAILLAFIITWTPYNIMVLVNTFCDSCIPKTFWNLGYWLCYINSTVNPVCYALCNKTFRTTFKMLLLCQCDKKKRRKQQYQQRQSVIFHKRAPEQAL
Summary of the method: as §1

M4 muscarinic receptor = target: T3, M4 muscarinic receptor (Homo sapiens, UniProt P08173); test: Functional mobilization of intracellular calcium (FLIPR), M4-CHO cells; details: for Emax: 100% efficacy = maximum response obtained with the Carbachol control; for M4 Activity: M4-CHO cells, calcium mobilization (FLIPR)
T3 construct: expressed in transfected cells; host or cells: CHO (M4-CHO)
T3 sequence (P08173 1-479): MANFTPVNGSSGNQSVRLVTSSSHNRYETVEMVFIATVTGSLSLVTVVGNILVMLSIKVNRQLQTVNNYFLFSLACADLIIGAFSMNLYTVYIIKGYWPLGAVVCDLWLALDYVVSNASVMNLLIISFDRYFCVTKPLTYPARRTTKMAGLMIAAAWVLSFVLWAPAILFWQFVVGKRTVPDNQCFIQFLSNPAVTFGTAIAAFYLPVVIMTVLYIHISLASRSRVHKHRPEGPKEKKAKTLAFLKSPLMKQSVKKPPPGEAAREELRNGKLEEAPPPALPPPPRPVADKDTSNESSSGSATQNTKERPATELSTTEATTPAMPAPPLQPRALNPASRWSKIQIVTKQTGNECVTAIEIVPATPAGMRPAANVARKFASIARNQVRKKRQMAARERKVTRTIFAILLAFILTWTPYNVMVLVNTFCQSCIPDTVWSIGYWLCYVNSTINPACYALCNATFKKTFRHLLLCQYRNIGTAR
Summary of the method: as §1

M2 muscarinic receptor = target: T4, M2 muscarinic receptor (Homo sapiens, UniProt P08172); test: Functional mobilization of intracellular calcium (FLIPR), M2-CHO cells; details: for Emax: 100% efficacy = maximum response obtained with the Carbachol control; for M2 Activity: M2-CHO cells, calcium mobilization (FLIPR)
T4 construct: expressed in transfected cells; host or cells: CHO (M2-CHO)
T4 sequence (P08172 1-466): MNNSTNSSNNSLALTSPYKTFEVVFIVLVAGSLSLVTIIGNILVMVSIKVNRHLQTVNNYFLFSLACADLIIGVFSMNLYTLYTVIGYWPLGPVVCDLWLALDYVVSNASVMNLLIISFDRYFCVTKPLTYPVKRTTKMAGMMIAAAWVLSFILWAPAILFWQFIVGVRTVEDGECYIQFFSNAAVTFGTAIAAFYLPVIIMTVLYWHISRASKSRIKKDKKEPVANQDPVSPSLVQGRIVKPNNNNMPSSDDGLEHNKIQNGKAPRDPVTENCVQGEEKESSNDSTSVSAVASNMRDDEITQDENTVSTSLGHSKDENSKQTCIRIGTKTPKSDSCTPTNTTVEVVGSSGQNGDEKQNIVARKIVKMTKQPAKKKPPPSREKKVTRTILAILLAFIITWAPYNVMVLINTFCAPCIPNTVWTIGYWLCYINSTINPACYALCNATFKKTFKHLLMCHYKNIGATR
Summary of the method: as §1

Row | Emax (M1 muscarinic receptor) [%] | Emax (M3 muscarinic receptor) [%] | Emax (M4 muscarinic receptor) [%] | Emax (M2 muscarinic receptor) [%] | SMILES | M1 Activity (M1 muscarinic receptor) | M3 Activity (M3 muscarinic receptor) | M4 Activity (M4 muscarinic receptor) | M2 Activity (M2 muscarinic receptor)
1 | < 25 | < 25 | 25 to 100 | < 25 | COc1ccc(Cl)cc1C1CCN(C2CC[S+]([O-])CC2)CC1 (stereo not drawn) [Compound 248] | + (activity was measured to be greater than 5.0 μM) | + (activity was measured to be greater than 5.0 μM) | + (activity was measured to be greater than 5.0 μM) | + (activity was measured to be greater than 5.0 μM)
2 | 25 to 100 | < 25 | 25 to 100 | 25 to 100 | COc1ccc(Cl)cc1C1CCN(C2CCOCC2)CC1 [Compound 249] | + (activity was measured to be greater than 5.0 μM) | + (activity was measured to be greater than 5.0 μM) | +++ (activity was measured to be less than 1.0 μM) | + (activity was measured to be greater than 5.0 μM)
3 | 25 to 100 | < 25 | 25 to 100 | < 25 | COc1ccc(C#N)cc1C1CCN([C@H]2C[C@H]3CC[C@H]2C3)CC1 [Compound 250] | ++ (activity was measured to be from 1.0 μM to 5.0 μM) | + (activity was measured to be greater than 5.0 μM) | +++ (activity was measured to be less than 1.0 μM) | + (activity was measured to be greater than 5.0 μM)
4 | 25 to 100 | < 25 | 25 to 100 | 25 to 100 | COC(=O)c1ccc(-c2ccccc2C2CCN([C@H]3C[C@H]4CC[C@H]3C4)CC2)cc1 [Compound 251] | + (activity was measured to be greater than 5.0 μM) | + (activity was measured to be greater than 5.0 μM) | +++ (activity was measured to be less than 1.0 μM) | + (activity was measured to be greater than 5.0 μM)
5 | 25 to 100 | < 25 | 25 to 100 | < 25 | CCOC(=O)N1CCC(CN2CCC(F)(c3cc(F)ccc3OC)CC2)CC1 [Compound 253] | +++ (activity was measured to be less than 1.0 μM) | + (activity was measured to be greater than 5.0 μM) | +++ (activity was measured to be less than 1.0 μM) | ++ (activity was measured to be from 1.0 μM to 5.0 μM)

Row | SMILES | Emax (M1 muscarinic receptor) [%] | Emax (M3 muscarinic receptor) [%] | Emax (M4 muscarinic receptor) [%] | Emax (M2 muscarinic receptor) [%] | M1 Activity (M1 muscarinic receptor) | M3 Activity (M3 muscarinic receptor) | M4 Activity (M4 muscarinic receptor) | M2 Activity (M2 muscarinic receptor)
6 | COc1ccc(F)cc1C1(OC)CCN(C2CC3CCC(C3)C2)CC1 (stereo not drawn) [Compound 247] | < 25 | < 25 | 25 to 100 | < 25 | + (activity was measured to be greater than 5.0 μM) | + (activity was measured to be greater than 5.0 μM) | +++ (activity was measured to be less than 1.0 μM) | + (activity was measured to be greater than 5.0 μM)
7 | Cc1ccccc1C1(O)CCN(C2CC3CCC2C3)CC1 (stereo not drawn) [Compound 252] | < 25 |  | < 25 | < 25 | + (activity was measured to be greater than 5.0 μM) | + (activity was measured to be greater than 5.0 μM) | + (activity was measured to be greater than 5.0 μM) | + (activity was measured to be greater than 5.0 μM)
8 | CCOC(=O)N1C2CCC1CC(N1CCC(c3cc(-c4ccc(CC#N)cc4)ccc3OC)CC1)C2 (stereo not drawn) [Compound 254] | 25 to 100 | < 25 | 25 to 100 | < 25 | + (activity was measured to be greater than 5.0 μM) | + (activity was measured to be greater than 5.0 μM) | ++ (activity was measured to be from 1.0 μM to 5.0 μM) | + (activity was measured to be greater than 5.0 μM)
